Assay results reported in patent publication US8420144B2, “Kokumi-imparting agent, method of using, and compositions containing same” (Ajinomoto Co., Inc., priority 2005, dated 2013).

Key:
human calcium receptor = target: T1, human calcium receptor (Homo sapiens, UniProt P41180); assay: Calcium receptor activation activity: Ca ion concentration-dependent Cl ionic current in Xenopus laevis oocyte expression system; assay type: cell-based
T1 construct: expressed in transfected cells; host or cells: Xenopus laevis oocytes microinjected with cRNA; gene amplified by PCR from human kidney cDNA (Clontech)
T1 sequence (P41180 20-1078): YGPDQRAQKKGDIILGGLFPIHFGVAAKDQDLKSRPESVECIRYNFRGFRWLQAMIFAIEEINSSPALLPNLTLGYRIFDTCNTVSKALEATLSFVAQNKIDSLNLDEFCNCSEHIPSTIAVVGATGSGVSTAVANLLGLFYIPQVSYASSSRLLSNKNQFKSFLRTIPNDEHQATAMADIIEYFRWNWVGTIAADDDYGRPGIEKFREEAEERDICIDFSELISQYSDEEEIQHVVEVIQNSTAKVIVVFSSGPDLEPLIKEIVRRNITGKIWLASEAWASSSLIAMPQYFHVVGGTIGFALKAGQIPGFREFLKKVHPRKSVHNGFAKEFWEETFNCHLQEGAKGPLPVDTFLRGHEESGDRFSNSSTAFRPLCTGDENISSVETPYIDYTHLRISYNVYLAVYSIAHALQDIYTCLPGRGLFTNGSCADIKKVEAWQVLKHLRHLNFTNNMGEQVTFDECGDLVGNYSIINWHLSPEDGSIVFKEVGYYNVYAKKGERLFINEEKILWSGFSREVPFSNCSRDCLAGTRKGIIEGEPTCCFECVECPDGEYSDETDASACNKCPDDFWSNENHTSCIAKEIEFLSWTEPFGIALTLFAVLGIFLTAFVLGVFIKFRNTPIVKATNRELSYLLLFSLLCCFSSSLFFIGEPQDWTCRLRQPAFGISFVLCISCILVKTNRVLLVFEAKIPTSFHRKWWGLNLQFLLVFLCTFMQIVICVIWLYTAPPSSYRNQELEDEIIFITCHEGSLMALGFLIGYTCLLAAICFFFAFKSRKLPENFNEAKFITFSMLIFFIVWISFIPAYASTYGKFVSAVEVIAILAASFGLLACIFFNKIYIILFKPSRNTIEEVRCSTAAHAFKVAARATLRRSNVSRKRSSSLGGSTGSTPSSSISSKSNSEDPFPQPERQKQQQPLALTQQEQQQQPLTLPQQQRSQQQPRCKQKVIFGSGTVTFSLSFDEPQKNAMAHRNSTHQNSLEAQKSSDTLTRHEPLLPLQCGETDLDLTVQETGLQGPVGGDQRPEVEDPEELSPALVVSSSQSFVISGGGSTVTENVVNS
Description: To evaluate calcium receptor activation activity, a Ca ion concentration-dependent Cl ionic current measuring method using a Xenopus laevis oocyte expression system was used. If each activator is added to Xenopus laevis oocytes expressing the calcium receptor, intracellular Ca ions increase. Then, the Ca ion concentration-dependent Cl channel opens, and the intracellular current value changes as an ionic current. By measuring the change in this intracellular current value, the presence or absence of calcium receptor activation activity can be determined.
Specifically, the abdomen of Xenopus laevis was opened, and an egg batch was taken out and treated with a 1% collagenase solution at 20° C. for 2 hours to obtain individual oocytes. Into the oocytes, 50 nl of 1 μg/μl receptor cRNA or 50 nl of sterilized water per oocyte was introduced by using a micro glass capillary, and the oocytes were cultured at 18° C. for 2 or 3 days. For the culture, a solution obtained by adding 2 mM pyruvic acid, 10 U/ml of penicillin, and 10 μg/ml of streptomycin to the solution in Example 2 was used. After the culture, a test solution was added to the oocytes containing either the cRNA or sterilized water. Electrophysiological measurement was performed by using an amplifier, Geneclamp500 (Axon), and recording software, AxoScope 9.0 (Axon). The oocytes were voltage-clamped at −70 mV by the double electrode voltage clamp method, and the intracellular current was measured via the Ca ion concentration-dependent Cl ion channel. The maximum value of the intracellular current was considered as the response current value.
Calcium receptor activation activity of L-amino acids was evaluated by using the method described in Example 13. That is, oocytes containing either cRNA of the calcium receptor or sterilized water were prepared, and voltage-clamped at −70 mV by the double electrode voltage clamp method. To the voltage-clamped oocytes, alanine (10 mM), arginine (10 mM), asparagine (10 mM), aspartic acid (10 mM), cysteine (10 mM), glutamine (10 mM), glutamic acid (10 mM), glycine (10 mM), histidine (10 mM), isoleucine (10 mM), leucine (10 mM), lysine (10 mM), methionine (10 mM), phenylalanine (10 mM), proline (10 mM), serine (10 mM), threonine (10 mM), tryptophan (10 mM), tyrosine (10 mM), valine (10 mM), ornithine (10 mM), taurine (10 mM), or hydroxyproline (10 mM) was added, and Ca ion concentration-dependent Cl response current was measured. […] As for the aforementioned amino acids, the activation activity was reported in Proc. Natl. Acad. Sci. USA, 2000 Apr. 25, 97(9):4814-9.
Calcium receptor activation activity of D-cysteine was evaluated by using the method described in Example 13. That is, oocytes containing either cRNA of the calcium receptor or sterilized water were prepared, and voltage-clamped at −70 mV by the double electrode voltage clamp method. To the voltage-clamped oocytes, D-cysteine (10 mM), L-cysteine (10 mM), D-tryptophan (10 mM), or L-tryptophan (10 mM) was added, and Ca ion concentration-dependent Cl response current was measured.
Calcium receptor activation activity of peptides was evaluated by using the method described in Example 13. That is, oocytes containing either cRNA of the calcium receptor or sterilized water were prepared, and voltage-clamped at −70 mV by the double electrode voltage clamp method.
Calcium receptor activation activity of peptides was evaluated in the same manner as that of Example 17. Each of the peptides shown in Table 2 was added to voltage-clamped oocytes at 1000 μM, 300 μM, 100 μM, 30 μM, 10 μM, 3 μM, 1 μM, 0.3 μM, and 0.1 μM, and Ca ion concentration-dependent Cl response current was measured.

[1] = Quantitative sensory evaluation test: imparting kokumi to corn soup; assay type: in vivo, human; settings: n=12, 0 control, 3 intense, 5 extremely intense
Description: The intensity of the activity for imparting kokumi to corn soup of each peptide having confirmed calcium receptor activation activity was measured by a quantitative sensory evaluation test, performed as follows: to commercially available corn soup, samples of either γ-Glu-Cys-Gly (glutathione) or γ-Glu-Val-Gly were added to a concentration of 0.0001 to 1 g/dl, and the intensity of the kokumi-imparting activity was measured for each sample. The corn soup with the samples that became acidic after dissolution of the samples with respect to the corn soup without the samples was adjusted with NaOH to pH not lower or higher by 0.2 than pH of the corn soup without the samples before use. Sensory evaluation scores were used to evaluate as follows: 0 points for the control sample, 3 points for intense activity as compared to the control, and 5 points for extremely intense activity as compared to the control, and the test was performed with n=12.

Compound | calcium receptor activation activity (Ca ion concentration-dependent Cl response current) (human calcium receptor; 50 μM peptide, oocytes voltage-clamped at −70 mV) | Intensity of kokumi: Aftertaste ([1]; 0.01 g/dl) [points] | Intensity of kokumi: First and middle taste ([1]; 0.01 g/dl) [points] | Activity (lowest concentration for which current was detected) (human calcium receptor; added at 1000, 300, 100, 30, 10, 3, 1, 0.3 and 0.1 μM) [µM] | Intensity of kokumi: Aftertaste ([1]; 0.0005 g/dl) [points] | Intensity of kokumi: First and middle taste ([1]; 0.0005 g/dl) [points] | Intensity of kokumi: Aftertaste ([1]; 0.001 g/dl) [points] | Intensity of kokumi: First and middle taste ([1]; 0.001 g/dl) [points] | Intensity of kokumi: Aftertaste ([1]; 0.1 g/dl) [points] | Intensity of kokumi: First and middle taste ([1]; 0.1 g/dl) [points]
N[C@@H](CCC(=O)N[C@@H](CS)C(=O)NCC(=O)O)C(=O)O [γ-Glu-Cys-Gly, reference compound] | definitive calcium receptor activation activity | 3.0 | 3.0 |  |  |  |  |  |  | 
CC(C)[C@H](NC(=O)CC[C@H](N)C(=O)O)C(=O)NCC(=O)O [γ-Glu-Val-Gly] |  | 5.0 | 4.5 | 0.1 | 3.0 | 2.5 | 4.0 | 3.5 | 5.0 | 5.0
